Assay results from patent publication US8569302B2, “Inhibitors of flaviviridae viruses” (Gilead Sciences, Inc., priority 2009, dated 2013).

Test system: human hepatoma Huh-7 cell line harboring a HCV replicon
Test: HCV replicon assay (inhibition of viral replication, luciferase readout)
Assay type: cell-based
Conditions: Huh-7 HCV replicon cells, 3 days incubation; for inhibition at 2 µM: Hepatitis C virus, 72 h
How it was run: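 Read-outs: luciferase luminescence for replication inhibition, corrected by ITMN-191 (100% inhibition) wells, and calcein AM fluorescence for cytotoxicity. Cells were treated for 3 days at 37 °C with ten 3-fold compound dilutions in 0.44% final DMSO. Percent inhibition relative to DMSO was fitted with a Hill equation to give EC50 and CC50.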

SMILES | inhibition at 2 µM [%] | % inhibition at 2μM [%]
CC(C)(C)C#Cc1cc(N(C(=O)[C@H]2CC[C@H](C)CC2)[C@H]2CC[C@H](Oc3ncccn3)CC2)c(C(=O)O)s1 [Compound 4, 5-(3,3-Dimethyl-but-1-ynyl)-3-{(trans-4-methyl-cyclohexanecarbonyl)-[trans-4-(pyrimidin-2-yloxy)-cyclohexyl]-amino}-thiophene-2-carboxylic acid] | 99.9 | –
CC1=CCC(C(=O)N(c2cc(C#CC(C)(C)C)sc2C(=O)O)[C@H]2CC[C@H](O[C@H]3CCOC3)CC2)[C@@H](C)C1 (single isomer, unassigned) [Compound 302, 5-(3,3-dimethyl-but-1-ynyl)-3-{(4,6S-dimethyl-cyclohex-3-enecarbonyl)-[4-(tetrahydro-furan-3S-yloxy)-trans-cyclohexyl]-amino}-thiophene-2-carboxylic acid] | 100 | –
CC1CCC(C(=O)N(c2cc(C#CC(C)(C)C)sc2C(=O)O)[C@H]2CC[C@H](Oc3cc(CN(C)C)ccn3)CC2)CC1 (stereo partly shown) [Compound 29, 3-[[-4-(4-dimethylaminomethyl-pyridin-2-yloxy)-cyclohexyl]-(4-methyl-cyclohexanecarbonyl)-amino]-5-(3,3-Dimethyl-but-1-ynyl)-thiophene-2-carboxylic acid] | 100 | –
CC(C)(C)C#Cc1cc(N(C(=O)[C@H]2CC[C@H](C)CC2)[C@H]2CC[C@H](Sc3ncc[nH]3)CC2)c(C(=O)O)s1 [Compound 94, 3-(N-(4-(1H-Imidazol-2-ylthio)cyclohexyl)-4-methylcyclohexanecarboxamido)-5-(3,3-dimethylbut-1-ynyl)thiophene-2-carboxylic acid] | 99.9 | –
CC(C)(C)C#Cc1cc(N(C(=O)[C@H]2CC[C@H](C)CC2)[C@H]2CC[C@H](Sc3nc[nH]n3)CC2)c(C(=O)O)s1 [Compound 97, 3-(N-(4-(1H-1,2,4-Triazol-3-ylthio)cyclohexyl)-4-methylcyclohexanecarboxamido)-5-(3,3-dimethylbut-1-ynyl)thiophene-2-carboxylic acid] | 99.9 | –
CC1=CCC(C(=O)N(c2cc(C#CC(C)(C)C)sc2C(=O)O)[C@H]2CC[C@H](O[C@@H]3CCOC3)CC2)[C@@H](C)C1 (single isomer, unassigned) [Compound 307, 5-(3,3-Dimethyl-but-1-ynyl)-3-{(4,6S-dimethyl-cyclohex-3-enecarbonyl)-[4-(tetrahydro-furan-3R-yloxy)-trans-cyclohexyl]-amino}-thiophene-2-carboxylic acid] | 100 | –
CC(C)(C)C#Cc1cc(N(C(=O)[C@H]2CC[C@H](C)CC2)[C@H]2CC[C@@H](Oc3ccnnc3)CC2)c(C(=O)O)s1 [Compound 183, 5-(3,3-Dimethylbut-1-ynyl)-3-(4-methyl-N-(4-(pyridazin-4-yloxy)cyclohexyl)cyclohexanecarboxamido)thiophene-2-carboxylic acid] | 100 | –
C[C@H]1CC[C@H](C(=O)N(c2cc(C#CC3CC3)sc2C(=O)O)[C@H]2CC[C@H](Oc3ccccn3)CC2)CC1 [Compound 229, 5-(2-cyclopropylethynyl)-3-(4-methyl-N-(4-(pyridin-2-yloxy)cyclohexyl)cyclohexanecarboxamido)thiophene-2-carboxylic acid] | 82.6 | –
CC(C)(C)C#Cc1cc(N(C(=O)[C@H]2CC[C@H](C)CC2)[C@H]2CC[C@H](Oc3ccc4nccn4n3)CC2)c(C(=O)O)s1 [Compound 176, Sodium 5-(3,3-dimethylbut-1-ynyl)-3-(N-(4-(imidazo[1,2-b]pyridazin-6-yloxy)cyclohexyl)-4-methylcyclohexanecarboxamido)thiophene-2-carboxylate] | 99.8 | –
Cn1nc(O[C@H]2CC[C@@H](N(c3cc(C#CC(C)(C)C)sc3C(=O)O)C(=O)[C@H]3CC[C@H](C)CC3)CC2)ccc1=O [Compound 173, Sodium 5-(3,3-dimethylbut-1-ynyl)-3-(4-methyl-N-(4-(1-methyl-6-oxo-1,6-dihydropyridazin-3-yloxy)cyclohexyl)cyclohexanecarboxamido)thiophene-2-carboxylate] | 100 | –
CC(C)(C)C#Cc1cc(N(C(=O)[C@H]2CC[C@H](C)CC2)[C@H]2CC[C@H](Oc3ccc(CN4CCCC4=O)cn3)CC2)c(C(=O)O)s1 [Compound 170, Sodium 5-(3,3-dimethylbut-1-ynyl)-3-(4-methyl-N-(4-(5-((2-oxopyrrolidin-1-yl)methyl)pyridin-2-yloxy)cyclohexyl)cyclohexanecarboxamido)thiophene-2-carboxylate] | 99.9 | –
CC1=CC[C@@H](C(=O)N(c2cc(C#CC(C)(C)C)sc2C(=O)O)[C@H]2CC[C@H](Oc3cc(CN(C)C)ccn3)CC2)CC1 [Compound 337, 3-[[4-(4-Dimethylaminomethyl-pyridin-2-yloxy)-trans-cyclohexyl]-(4-methyl-cyclohex-3-enecarbonyl)-amino]-5-(3,3-dimethyl-but-1-ynyl)-thiophene-2-carboxylic acid] | 100 | –
CC(C)(C)C#Cc1cc(N(C(=O)[C@H]2CC[C@H](C)CC2)[C@H]2CC[C@H](Sc3ncccn3)CC2)c(C(=O)O)s1 [Compound 100, 5-(3,3-Dimethylbut-1-ynyl)-3-(4-methyl-N-(4-(pyrimidin-2-ylthio)cyclohexyl)cyclohexanecarboxamido)thiophene-2-carboxylic acid] | 99.9 | –
CC(C)(C)C#Cc1cc(N(C(=O)[C@H]2CC[C@H](C)CC2)C2CCN(S(=O)(=O)c3cccnc3)CC2)c(C(=O)O)s1 [Compound 210, 5-(3,3-Dimethyl-but-1-ynyl)-3-{(4-methyl-cyclohexanecarbonyl)-[1-(pyridine-3-sulfonyl)-piperidin-4-yl]-amino}-thiophene-2-carboxylic acid] | 100 | –
CC(C)(C)C#Cc1cc(N(C(=O)[C@H]2CC[C@H](C)CC2)[C@H]2CCN(S(=O)(=O)c3cccnc3)C2)c(C(=O)O)s1 [Compound 216, 5-(3,3-Dimethyl-but-1-ynyl)-3-{(4-methyl-cyclohexanecarbonyl)-[1-(pyridine-3-sulfonyl)-pyrrolidin-3-yl]-amino}-thiophene-2-carboxylic acid] | 100 | –
CC1CCC(C(=O)N(c2cc(C#CC(C)(C)C)sc2C(=O)O)[C@H]2CC[C@H](Oc3cncc(CN4CCOCC4)c3)CC2)CC1 (stereo partly shown) [Compound 194, 3-[[4-(5-morpholin-4-ylmethyl-pyridin-3-yloxy)-cyclohexyl]-(4-methyl-cyclohexanecarbonyl)-amino]-5-(3,3-dimethyl-but-1-ynyl)-thiophene-2-carboxylic acid] | 99.9 | –
CC(C)(C)C#Cc1cc(N(C(=O)[C@H]2CC[C@H](C)CC2)[C@H]2C[C@@H](Oc3ccc[n+]([O-])c3)C2)c(C(=O)O)s1 [Compound 145, 5-(3,3-Dimethyl-but-1-ynyl)-3-{(trans-4-methyl-cyclohexanecarbonyl)-[cis-3-(pyridin-3-yloxy-N-oxide)-cyclobutyl]-amino}-thiophene-2-carboxylic acid] | – | 99.5
CC(C)(C)C#Cc1cc(N(C(=O)[C@H]2CC[C@H](C)CC2)[C@H]2CC[C@H](Sc3cccc[n+]3[O-])CC2)c(C(=O)O)s1 [Compound 88] | 98.5 | –
CC(C)(C)C#Cc1cc(N(C(=O)[C@H]2CC[C@H](C)CC2)[C@H]2CC[C@@H](OC3CCOCC3)CC2)c(C(=O)O)s1 [Compound 219, 5-(3,3-dimethylbut-1-ynyl)-3-((1r,4R)-4-methyl-N-((1r,4R)-4-(tetrahydro-2H-pyran-4-yloxy)cyclohexyl)cyclohexanecarboxamido)thiophene-2-carboxylic acid] | 100 | –
